Measured values taken from a melting point compilation (Tetko et al.; mined from patent text by program, amines drawn as free bases though some values may be those of a salt).

| Compound | melting point [°C] |
| --- | --- |
| CC(C)(C)OC(=O)C(C)(C)Oc1ccc(N)cc1 | 87 to 88 |
| CCOc1cc(OCCCc2cn(-c3cc(C(F)(F)F)ccn3)nc2OCC)ccc1CCC(=O)O | 119 to 120 |
| Cn1ncnc1COc1nn2c(-c3ccc(F)cc3)nncc2c1-c1ccccc1F | 191 |
| O=C1c2ccccc2C(=O)N1CC(Br)(CBr)c1ccccc1 (centres undefined) | 162 to 163 |
| COC(=O)C[C@H](Br)C(N)=O | 82 to 84 |
| COc1ccc(N2C(=O)[C@H]([C@@H](C)O)[C@H]2S(=O)(=O)c2ccccc2)cc1 | 191 to 195 |
| Cc1nnc(Cc2ccc(NC(=O)/C=C/c3cnn(C)c3-c3ccc(F)cc3)cc2)o1 | 151 to 152 |
| COC(=O)c1ccc(Cc2cccc3ccc(C(N)=O)cc23)c(OC)c1 | 215 to 216 |
| CC(=Cc1ccc(O)cc1)C(=O)O | 204 to 205 |
| CCC(C)(CC(=O)Nc1cccc(OCc2ccc3ccc(F)cc3n2)c1)C(=O)O (centres undefined) | 179 to 180 |
| CC(=O)Nc1nc2c(Oc3cc(-c4ccc(C(F)(F)F)cc4)ncn3)cccc2s1 | 219 to 220 |
| CC1CCC(C)(C)C2=C1CC(O)C(C)(O)C2 (centres undefined) | 121 to 123 |
| N#Cc1cc(Br)c(NC(=O)NC(=O)c2c(F)cccc2F)cc1Cl | 247 |
| O=C(O)Cc1cc(Cl)c2c(c1)CCC(c1ccccc1)N2 (centres undefined) | 126 to 127 |
| CC(=O)OC1CSC(Oc2ccc(-c3cncnc3)nc2)C(OC(C)=O)C1OC(C)=O (centres undefined) | 215 |
| CCCCCNCCC1CCCC1CCCCCCC(=O)O (centres undefined) | 107 to 108 |
| CSc1c(C(=O)NN2CCCCC2)nn(-c2ccc(Cl)cc2Cl)c1-c1ccc(Cl)cc1 | 172 to 174 |
| O=c1[nH]c2ccsc2c(=O)n1CCN1CCC(=C(c2ccc(F)cc2)c2ccc(F)cc2)CC1 | 207 to 208 |
| CC(C)CSc1nc(N)nc2c1ncn2C1C=CC(CO)C1 (centres undefined) | 127 to 129 |
| CCOc1cc2ncc(C#N)c(Nc3ccc4c(c3)C(=O)NC4=O)c2cc1OCC | 248 to 251 |
| O=C(O)c1ccc(Br)cc1C(=O)c1ccccc1 | 185 to 187 |
| Cn1c(=O)[nH]c2sccc2c1=O | 263 to 265 |
| O=C(c1ccccc1)c1cnn2c1NCCC2 | 173 to 174 |

| Compound | melting point [°C] |
| --- | --- |
| Cc1cc(F)cc(Oc2ccc([C@@H]3CCCN4CCS(=O)(=O)N=C34)cc2)c1 | 158 to 159 |
| Cc1csc2c(Sc3nnc(N)s3)ncnc12 | 221 to 223 |
| Cc1cccc(NC(=O)NCC(=O)N(c2ccccc2)C(C(=O)OC(C)(C)C)c2ccc(Cl)c(Cl)c2)c1 (racemic) | 176 |
| O=[N+]([O-])c1ccc(-n2cncn2)cc1F | 90 to 91 |
| O=C(O)c1c(-c2cccc(Cl)c2)csc1N1C(=O)c2ccccc2C1=O | 203 to 204 |
| CS(=O)(=O)c1ccc(-c2cnn(CC(F)(F)F)c(=O)c2-c2ccc(Cl)c(Cl)c2)cc1 | 197 to 198 |
| C=C=COc1ccccc1S(N)(=O)=O | 94 to 95 |
| Cc1nc(N2CCC(N(C)C)CC2)c2nc(-c3ccccc3)cc-2[nH]1 | 262 to 263 |
| O=c1c2c(Cc3ccc(C(F)(F)F)cc3)n[nH]c2c2cccnc2n1-c1ccccc1 | 216 to 219 |
| O=c1nc(-c2cccc(CC(O)=S)n2)sc2ccccc12 | 258 to 260 |
| Cc1cc(C)c2cccc(OCc3c(Cl)ccc(S(=O)(=O)N4CCC[C@H]4C(=O)NCCNC(=O)COc4ccc(C=NN)cc4)c3Cl)c2n1 | 156 to 160 |
| O=C(O)COC1CCN(C(=O)CN2CCN(c3ccncc3)CC2)CC1 | 198 to 200 |
| COC(=O)Cc1ccc(CNC(=O)C2Cc3ccccc3N2S(=O)(=O)c2ccc(-c3ccc(F)cc3OC)cc2)cc1 (centres undefined) | 77 to 79 |
| O=C1NC2(CCCCC2)Sc2ccccc21 | 193 to 195 |
| CCn1c(COCc2ccccc2)nc(C(C)C)c1Sc1cccc(Cl)c1 | 99 to 100 |
| NC(=O)c1cc(OCCNCC(O)COc2ccccc2-c2cc3ccccc3[nH]2)ccc1O (centres undefined) | 93 to 95 |
| OC(c1ccccc1)(c1ccccc1)C(c1ccc(OCc2ccccc2)cc1)n1ccnc1 (centres undefined) | 204 |
| CC1(C)OC(=O)c2c(O)cccc21 | 128 to 134 |
| COc1cc2c(cc1OC)N(C)C(=O)CN=C2c1cncc2ccccc12 | 131 to 135 |
| Ic1cc(I)c(OCCC(c2ccccc2)c2ccccc2)c(I)c1 | 120 to 121 |
| COc1nc(NNc2nc(OC)nc(OC)n2)nc(OC)n1 | 222 to 224 |
| COc1ccc(N2C(=O)C3=C(SCCS3)C2CC(=O)N2CCCCC2)cc1 (centres undefined) | 163 to 164 |

More lines, now with the values ahead:

| melting point [°C] | Compound |
| --- | --- |
| 112 to 116 | CC12CCC3(CC1CCC1C2CCC2(C)C1CC(O)C2N=[N+]=[N-])OCCO3 (centres undefined) |
| 81 to 83 | O=C1C[C@@H]2[C@@H](/C=C/[C@H](O)CCc3ccccc3)[C@H](OC(=O)c3ccc(-c4ccccc4)cc3)C[C@@H]2O1 |
| 113 to 115 | O=S(=O)(Nc1ccc2c(OCc3cccc(Br)c3)cccc2c1)C(F)(F)F |
| 134 to 136 | NS(=O)(=O)OCCOc1ccc(-n2cncn2)cc1 |
| 196 to 197 | CC(C)NCC(=O)Nc1cccc2c1C(=O)c1c(NC(=O)CNC(C)C)cccc1C2=O |
| 245 to 248 | COc1ccc(-c2c3c(cc4ccc(O)cc24)-c2ccc(O)cc2CO3)cc1OC |
| 106 to 108 | COc1cccc(-c2nc3sccn3c2-c2ccnc(N[C@@H]3CCCN(C[C@@H](O)CO)C3)n2)c1 |
| 209 to 211 | CC(C)(C)OC(=O)NCC(=O)N1CCC(=C2c3ccc(Cl)cc3CCc3cccnc32)CC1 |
| 161 to 162 | CNC(=O)N(O)CCNC(=O)c1cccc(Oc2ccccc2)c1 |
| 179 to 180 | Cc1c(Cc2ccc(C(C)C)cc2)c2c(c(C)c1NC(=O)CC(C)(C)C)C(N1CCCC1)C(C)(C)O2 (centres undefined) |
| 233 to 235 | NS(=O)(=O)c1cc2cc(O)c(O)cc2s1 |
| 110 to 112 | Cc1ccnc(-c2cc(CO)ccn2)c1 |
| 243 to 245 | Cc1ccc(NN2C=c3cc(-c4c(Cl)cccc4Cl)c(=O)n(C)c3=NC2)cc1 |
| 164 to 165 | CN1CCN(S(=O)(=O)c2ccc([N+](=O)[O-])cc2[N+](=O)[O-])CC1 |
| 228 to 230 | CC(=O)NC(NC(=O)C(F)(F)F)C(=O)NCc1ccccc1 (centres undefined) |
| 157 to 160 | COc1cc(OC)nc(OC(C(=O)N[C@@H](C)C(=O)O)C(C)C)n1 (some centres undefined) |
| 83 to 85 | Cc1ccc(C(O)(c2ccc(C)cc2)[C@H](C)OS(C)(=O)=O)cc1 |
| 145 to 147 | CON1C(C)(C)CC(OC(=O)N=NC(=O)OC2CC(C)(C)N(OC)C(C)(C)C2)CC1(C)C |
| 176 to 183 | N#Cc1c(N2CCN(C(=O)c3c[nH]cn3)CC2)c2ccccc2n(Cc2ccc(F)cc2)c1=O |
| 145 to 147 | CCCCCS(=O)(=O)NC(=O)CCc1cc(-c2ccccc2)nn1Cc1ccc(Cl)cc1Cl |
| 203 to 204 | Cc1cccc(C(=O)Nc2cc(-c3c(-c4ccc(F)c(C)c4)nc4cccnn34)ccn2)c1 |
| 123 to 124 | CCCC(=O)c1cc2c(OCC)cc(C(=O)OCC)nc2cc1C |
| 179 to 180 | CCCCCCCNC(=O)Nc1ccc(C(C)C)cc1C(=O)NCC1CCN(C(c2ccccc2)c2ccccc2)CC1 |
| 249 to 250 | S=c1[nH]c2cccc(OCCN3CCc4ccccc4C3)c2[nH]1 |
